Data reported in patent US8039487B2, “Piperidine-amide derivatives” (Hoffmann-La Roche Inc., priority 2007, dated 2011).

Target: T1, liver carnitine palmitoyl transferase 1 (L-CPT1) (Homo sapiens, UniProt P50416)
T1 construct: made in house; host or cells: Pichia pastoris strain X-33 (crude cell-free extract)
T1 sequence (P50416 1-773): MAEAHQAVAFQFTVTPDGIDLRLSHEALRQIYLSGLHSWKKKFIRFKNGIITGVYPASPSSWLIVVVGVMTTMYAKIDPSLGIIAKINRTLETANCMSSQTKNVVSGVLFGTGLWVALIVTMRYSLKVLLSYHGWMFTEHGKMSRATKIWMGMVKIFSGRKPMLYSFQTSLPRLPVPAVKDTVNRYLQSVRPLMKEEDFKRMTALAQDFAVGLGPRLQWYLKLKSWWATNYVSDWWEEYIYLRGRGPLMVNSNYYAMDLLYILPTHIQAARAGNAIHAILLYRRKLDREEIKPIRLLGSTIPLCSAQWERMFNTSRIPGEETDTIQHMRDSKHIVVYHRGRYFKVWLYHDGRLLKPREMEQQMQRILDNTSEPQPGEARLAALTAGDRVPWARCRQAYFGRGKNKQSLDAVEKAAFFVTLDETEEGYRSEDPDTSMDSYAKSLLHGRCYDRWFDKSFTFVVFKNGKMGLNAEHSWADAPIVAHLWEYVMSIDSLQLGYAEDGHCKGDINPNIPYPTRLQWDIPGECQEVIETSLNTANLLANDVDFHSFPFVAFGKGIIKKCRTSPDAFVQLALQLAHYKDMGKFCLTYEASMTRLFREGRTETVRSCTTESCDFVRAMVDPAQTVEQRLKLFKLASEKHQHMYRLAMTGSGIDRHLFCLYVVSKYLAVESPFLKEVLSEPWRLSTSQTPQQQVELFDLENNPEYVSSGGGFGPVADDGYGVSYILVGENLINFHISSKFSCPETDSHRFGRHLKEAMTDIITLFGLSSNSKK
Assay: L-CPT1 inhibition, spectrophotometric CPT activity assay with DTNB (Ellman's reagent)
Assay type: biochemical
Conditions: human liver CPT1 expressed in P. pastoris, cell extracts; carnitine 500 μM, palmitoyl-CoA 80 μM, DTNB 300 μM, pH 7.4
Experimental: The following tests were carried out in order to determine the activity of the compounds of the present invention. Background information on the performed assays can be found in: Jackson et al., 1999, Biochem. J. 341, 483-489 and Jackson et al., 2000, J. Biol. Chem. 275, 19560-19566.
Human liver and muscle CPT1 cDNAs and rat CPT2 cDNA were subcloned in pGAPZB or pGAPZA, respectively. These plasmids were used to transform P. pastoris strain X-33 via electroporation after the preparation of electrocompetent cells. High copy number clones were selected where necessary using 0.5 or 1 mg/ml Zeocin. Cultures for activity measurements were induced for 16 h in YPD medium (1% yeast extract, 2% peptone, 2% glucose). Crude cell extracts were prepared by disrupting the cells with glass beads or French Press, depending on fermenter sizes. After centrifugation, the cell-free extracts were resuspended in cell breaking buffer (50 mM Tris, pH7.4, 100 mM KCl, 1 mM EDTA) in the presence of a protease inhibitor cocktail, before aliquoting and freezing at −20° C.
CPT activity was measured using a spectrophotometric assay using 5,5′-dithio-bis-(2-nitrobenzoic acid) (DTNB) also called Ellman's reagent. The HS-CoA released on the formation of acylcarnitine from carnitine (500 μM) and palmitoyl-CoA (80 μM) reduced DTNB (300 μM) forming 5-mercapto-(2-nitrobenzoic acid) which absorbed at 410 nm with a molar extinction coefficient of 13600 M^−1cm^−1. The assay buffer contained 120 mM KCl, 25 mM Tris, pH 7.4, 1 mM EDTA. This assay was used for the identification of selective inhibitors of the liver CPT1 isoform versus the muscle CPT1 and CPT2 isoforms.

IC50 [nM]	Structure (SMILES)
24.1	O=C(O)c1cccc(-c2csc([C@H]3CCCCN3C(=O)COc3ccccc3)n2)c1 [Example 44, Sodium; 3-{2-[(R)-1-(2-phenoxy-acetyl)-piperidin-2-yl]-thiazol-4-yl}-benzoate]
247	COc1ccc(Cl)cc1-c1csc([C@H]2CCCCN2C(=O)COc2ccccc2)n1 [Example 9, 1-{(R)-2-[4-(5-Chloro-2-methoxy-phenyl)-thiazol-2-yl]-piperidin-1-yl}-2-phenoxy-ethanone]
286	O=C(COc1ccccc1)N1CCCC[C@@H]1c1nc(-c2ccc(F)c(F)c2)cs1 [Example 7, 1-{(R)-2-[4-(3,4-Difluoro-phenyl)-thiazol-2-yl]-piperidin-1-yl}-2-phenoxy-ethanone]
134	O=C(COc1ccccc1)N1CCCC[C@@H]1c1nc(-c2ccc3c(c2)OCO3)cs1 [Example 17, 1-[(R)-2-(4-Benzo[1,3]dioxol-5-yl-thiazol-2-yl)-piperidin-1-yl]-2-phenoxy-ethanone]
79.6	O=C(COc1ccccc1)N1CCCC[C@@H]1c1nc(-c2ccc(O)cc2)cs1 [Example 16, 1-{(R)-2-[4-(4-Hydroxy-phenyl)-thiazol-2-yl]-piperidin-1-yl}-2-phenoxy-ethanone]
40.5	N#Cc1ccc(-c2csc([C@H]3CCCCN3C(=O)COc3ccccc3)n2)cc1 [Example 20, 4-{2-[(R)-1-(2-Phenoxy-acetyl)-piperidin-2-yl]-thiazol-4-yl}-benzonitrile]

More lines, now with the values behind:

Structure (SMILES)	IC50 [nM]
CC(=O)Nc1ccc(-c2nc([C@H]3CCCCN3C(=O)COc3ccccc3)cs2)cc1 [Example 25, N-(4-{4-[(R)-1-(2-Phenoxy-acetyl)-piperidin-2-yl]-thiazol-2-yl}-phenyl)-acetamide]	164
O=C(COc1ccccc1)N1CCCC[C@@H]1c1nc(-c2ccc(OC(F)(F)F)cc2)cs1 [Example 4, 2-Phenoxy-1-{(R)-2-[4-(4-trifluoromethoxy-phenyl)-thiazol-2-yl]-piperidin-1-yl}-ethanone]	798
O=C(O)c1cccc(-c2csc([C@H]3CCCCN3C(=O)COc3ccccc3)n2)n1 [Example 42, 6-{2-[(R)-1-(2-Phenoxy-acetyl)-piperidin-2-yl]-thiazol-4-yl}-pyridine-2-carboxylic acid]	37.7
O=C(COc1ccccc1)N1CCCC[C@@H]1c1nc(-c2ccc(Br)s2)cs1 [Example 23, 1-{(R)-2-[4-(5-Bromo-thiophen-2-yl)-thiazol-2-yl]-piperidin-1-yl}-2-phenoxy-ethanone]	88.6
COC(=O)c1ccc(-c2nc([C@H]3CCCCN3C(=O)COc3ccccc3)cs2)cc1 [Example 36, 4-{4-[(R)-1-(2-Phenoxy-acetyl)-piperidin-2-yl]-thiazol-2-yl}-benzoic acid methyl ester]	365
O=C(COc1ccccc1)N1CCCC[C@@H]1c1nc(-c2ccccn2)cs1 [Example 6, 2-Phenoxy-1-[(R)-2-(4-pyridin-2-yl-thiazol-2-yl)-piperidin-1-yl]-ethanone]	19.6
O=C(COc1ccccc1)N1CCCC[C@@H]1c1csc(C2COc3ccccc3O2)n1 (stereo partly drawn) [Example 38, 1-{(R)-2-[2-(2,3-Dihydro-benzo[1,4]dioxin-2-yl)-thiazol-4-yl]-piperidin-1-yl}-2-phenoxy-ethanone]	398
